Data from ChEMBL document CHEMBL3045179, “Mode of Action and QSAR Studies of Nitrification Inhibitors” (J Pestic Sci, 1997).

Columns and labels:
Nitrosomonas europaea [1] = assay: Inhibition of Nitrosomonas europaea ATCC 25978-mediated nitrification activity assessed as nitrite nitrogen formation after 7 to 10 days by Griess-Ilosvay method; type: functional, organism-based; conditions: read-out: pI50 (converted)
[2] = Octanol-water partition coefficient, log P of the compound; type: physicochemical
Nitrosomonas europaea [3] = assay: Inhibition of Nitrosomonas europaea ATCC 25978-mediated nitrification activity assessed as nitrite nitrogen formation at 2 mg/kg after 7 to 10 days by Griess-Ilosvay method relative to control; type: functional
Nitrosomonas sp. TK794 [4] = assay: Inhibition of Nitrosomonas sp. TK794-mediated nitrification activity assessed as nitrite nitrogen formation at 4 mg/kg after 7 to 10 days by Griess-Ilosvay method relative to control; type: functional
Nitrosomonas europaea [5] = assay: Inhibition of Nitrosomonas europaea ATCC 25978-mediated nitrification activity assessed as nitrite nitrogen formation at 200 mg/kg after 7 to 10 days by Griess-Ilosvay method relative to control; type: functional
Nitrosomonas sp. TK794 [6] = assay: Inhibition of Nitrosomonas sp. TK794-mediated nitrification activity assessed as nitrite nitrogen formation at 500 mg/kg after 7 to 10 days by Griess-Ilosvay method relative to control; type: functional
Nitrosomonas sp. TK794 [7] = assay: Inhibition of Nitrosomonas sp. TK794-mediated nitrification activity assessed as nitrite nitrogen formation at 25 mg/kg after 7 to 10 days by Griess-Ilosvay method relative to control; type: functional
Nitrosomonas sp. TK794 [8] = assay: Inhibition of Nitrosomonas sp. TK794-mediated nitrification activity assessed as nitrite nitrogen formation at 1 mg/kg after 7 to 10 days by Griess-Ilosvay method relative to control; type: functional
Nitrosomonas europaea [9] = assay: Inhibition of Nitrosomonas europaea ATCC 25978-mediated nitrification activity assessed as nitrite nitrogen formation at 1 mg/kg after 7 to 10 days by Griess-Ilosvay method relative to control; type: functional; conditions: values are per cent of control
Nitrosomonas sp. TK794 [10] = assay: Inhibition of Nitrosomonas sp. TK794-mediated nitrification activity assessed as nitrite nitrogen formation at 0.5 mg/kg after 7 to 10 days by Griess-Ilosvay method relative to control; type: functional
Nitrosomonas europaea [11] = assay: Inhibition of Nitrosomonas europaea ATCC 25978-mediated nitrification activity assessed as nitrite nitrogen formation at 0.1 mg/kg after 7 to 10 days by Griess-Ilosvay method relative to control; type: functional; conditions: values are per cent of control
Nitrosomonas europaea [12] = assay: Inhibition of Nitrosomonas europaea ATCC 25978-mediated nitrification activity assessed as nitrite nitrogen formation at 0.5 mg/kg after 7 to 10 days by Griess-Ilosvay method relative to control; type: functional; conditions: values are per cent of control
Nitrosomonas sp. TK794 [13] = assay: Inhibition of Nitrosomonas sp. TK794-mediated nitrification activity assessed as nitrite nitrogen formation at 5 mg/kg after 7 to 10 days by Griess-Ilosvay method relative to control; type: functional
Nitrosomonas sp. TK794 [14] = assay: Inhibition of Nitrosomonas sp. TK794-mediated nitrification activity assessed as nitrite nitrogen formation at 200 mg/kg after 7 to 10 days by Griess-Ilosvay method relative to control; type: functional
Nitrosomonas europaea [15] = assay: Inhibition of Nitrosomonas europaea ATCC 25978-mediated nitrification activity assessed as nitrite nitrogen formation at 10 mg/kg after 7 to 10 days by Griess-Ilosvay method relative to control; type: functional
Nitrosomonas sp. TK794 [16] = assay: Inhibition of Nitrosomonas sp. TK794-mediated nitrification activity assessed as nitrite nitrogen formation at 50 mg/kg after 7 to 10 days by Griess-Ilosvay method relative to control; type: functional

SMILES	IC50 (Nitrosomonas europaea [1]) [µM]	logP ([2]; read-out: logP)	residual activity at 1 mg/kg (Nitrosomonas europaea [9]) [%]	also measured
Nc1nc(N)nc(C(Cl)(Cl)Cl)n1	7.08	1.21		inhibition in vivo at 2 mg/kg (Nitrosomonas europaea [3]): 63.2%; inhibition in vivo at 4 mg/kg (Nitrosomonas sp. TK794 [4]): 40%
CCCCCCCCCCCCCCCCNc1nc(C(Cl)(Cl)Cl)nc(C(Cl)(Cl)Cl)n1				inhibition in vivo at 200 mg/kg (Nitrosomonas europaea [5]): 52.8%; logP [2]: 11.05; inhibition in vivo at 500 mg/kg (Nitrosomonas sp. TK794 [6]): 52.9%
ClC(Cl)(Cl)c1nc(C(Cl)(Cl)Cl)nc(C(Cl)(Cl)Cl)n1		3.71		inhibition in vivo at 25 mg/kg (Nitrosomonas sp. TK794 [7]): 50%
CCOc1nc(-c2ccccc2)nc(C(Cl)(Cl)Cl)n1	1.05	5.7	31.4	inhibition in vivo at 1 mg/kg (Nitrosomonas sp. TK794 [8]): 51.2%
ClC(Cl)(Cl)c1nc(Nc2ccccc2)nc(C(Cl)(Cl)Cl)n1		4.33		inhibition in vivo at 0.5 mg/kg (Nitrosomonas sp. TK794 [10]): 55%
CCOc1nc(SC)nc(C(Cl)(Cl)Cl)n1	0.676	4.64		inhibition in vivo at 1 mg/kg (Nitrosomonas sp. TK794 [8]): 60%; residual activity at 0.1 mg/kg (Nitrosomonas europaea [11]): 64.8%
CCCNc1nc(-c2ccccc2)nc(C(Cl)(Cl)Cl)n1	0.389	5.75		residual activity at 0.1 mg/kg (Nitrosomonas europaea [11]): 50.1%; inhibition in vivo at 0.5 mg/kg (Nitrosomonas sp. TK794 [10]): 58.1%
Fc1ccc(Oc2nc(C(Cl)(Cl)Cl)nc(C(Cl)(Cl)Cl)n2)c(Cl)c1	1.1	5.74		inhibition in vivo at 1 mg/kg (Nitrosomonas sp. TK794 [8]): 57.8%; residual activity at 0.5 mg/kg (Nitrosomonas europaea [12]): 52.2%
CCCCc1nc(N)nc(C(Cl)(Cl)Cl)n1	1.2	4.4	29	inhibition in vivo at 1 mg/kg (Nitrosomonas sp. TK794 [8]): 39.7%
Cc1nc(N)nc(C(Cl)(Cl)Cl)n1		2.82		inhibition in vivo at 5 mg/kg (Nitrosomonas sp. TK794 [13]): 42.1%
CCCCN(CCCC)c1nc(C)nc(C(Cl)(Cl)Cl)n1	2.09	7.23	56.2	inhibition in vivo at 1 mg/kg (Nitrosomonas sp. TK794 [8]): 56.8%
COc1nc(N)nc(C(Cl)(Cl)Cl)n1	0.49	2.36		residual activity at 0.1 mg/kg (Nitrosomonas europaea [11]): 36.1%; inhibition in vivo at 0.5 mg/kg (Nitrosomonas sp. TK794 [10]): 29.5%
CSc1nc(C(Cl)(Cl)Cl)nc(C(Cl)(Cl)Cl)n1	0.186	4.21		residual activity at 0.5 mg/kg (Nitrosomonas europaea [12]): 18.7%; inhibition in vivo at 0.5 mg/kg (Nitrosomonas sp. TK794 [10]): 41.3%
Nc1nc(-c2ccccc2)nc(C(Cl)(Cl)Cl)n1	0.363	4.02	20.8	inhibition in vivo at 5 mg/kg (Nitrosomonas sp. TK794 [13]): 49.7%
CCCCN(CC)c1nc(C)nc(C(Cl)(Cl)Cl)n1	0.955	6.17		residual activity at 0.1 mg/kg (Nitrosomonas europaea [11]): 52.9%
CSc1nc(N)nc(C(Cl)(Cl)Cl)n1	1.26	2.96		inhibition in vivo at 5 mg/kg (Nitrosomonas sp. TK794 [13]): 27%; residual activity at 0.5 mg/kg (Nitrosomonas europaea [12]): 65.5%
CCOc1nc(C(Cl)(Cl)Cl)nc(C(Cl)(Cl)Cl)n1	0.437	4.14	27.3	inhibition in vivo at 1 mg/kg (Nitrosomonas sp. TK794 [8]): 25.8%
Cc1nc(C(Cl)(Cl)Cl)nc(C(Cl)(Cl)Cl)n1	0.708	4.07		residual activity at 0.5 mg/kg (Nitrosomonas europaea [12]): 47.2%; inhibition in vivo at 0.5 mg/kg (Nitrosomonas sp. TK794 [10]): 65%
Clc1cccc(C(Cl)(Cl)Cl)n1 [NITRAPYRIN]	1.91		30.1	inhibition in vivo at 5 mg/kg (Nitrosomonas sp. TK794 [13]): 22.9%
ClC(Cl)(Cl)c1nc(-c2ccccc2)nc(C(Cl)(Cl)Cl)n1		5.26		inhibition in vivo at 200 mg/kg (Nitrosomonas sp. TK794 [14]): 65.8%
CCCCCCNc1nc(C)nc(C(Cl)(Cl)Cl)n1	0.417	6.13		residual activity at 0.1 mg/kg (Nitrosomonas europaea [11]): 54.5%
CCCNc1nc(C)nc(C(Cl)(Cl)Cl)n1	2	4.56	42.9	
CCCCN(C)c1nc(C)nc(C(Cl)(Cl)Cl)n1	0.589	5.65		residual activity at 0.1 mg/kg (Nitrosomonas europaea [11]): 59.5%
CCCCCCCCCCNc1nc(C)nc(C(Cl)(Cl)Cl)n1	9.12	8.27		inhibition in vivo at 10 mg/kg (Nitrosomonas europaea [15]): 56.2%; inhibition in vivo at 50 mg/kg (Nitrosomonas sp. TK794 [16]): 50%
Cc1nc(Oc2ccc(Cl)cc2)nc(C(Cl)(Cl)Cl)n1	0.741	5.94	36.1	inhibition in vivo at 1 mg/kg (Nitrosomonas sp. TK794 [8]): 47%
CCCCCCCCCNc1nc(C)nc(C(Cl)(Cl)Cl)n1	3.02	7.72	59	inhibition in vivo at 5 mg/kg (Nitrosomonas sp. TK794 [13]): 55%
CCCCCNc1nc(C(Cl)(Cl)Cl)nc(C(Cl)(Cl)Cl)n1	1.23	5.25		residual activity at 0.1 mg/kg (Nitrosomonas europaea [11]): 67.1%
